US10226476B2, “Method of attenuating reactions to skin irritants” (Dana-Farber Cancer Institute, Inc., priority 2001, dated 2019)
“Also recorded” adds a separate entry of the source.

System: oxazolone-induced contact hypersensitivity in mice
Assay: oxazolone-induced contact hypersensitivity (hapten-specific increase in ear thickness at 24 hours)
Type: in vivo, mouse
Conditions: for effect on CSH/CHS response to oxazolone, systemic administration: systemic (i.p.) administration
Source text: 8-12 week old female C57B1/6 mice were purchased from Taconic Farms. Inc. (Germantown, N.Y.). The CD1d-null allele (generated in a 129×C57B1/6 founder (25) (26) was backcrossed 7 generations into the C57B1/6 strain. (15) Homozygous CD1d deficient mice were obtained from littermate pairings and used to generate heterozygote CD1d deficient and wild type controls. Breeding pairs of mice deficient for CD1d on the BALB/c background were purchased from Jackson Labs (Bar Harbor, Me.). The C57B1/6 and BALB/c J 281 null mice were established by specific deletion of the J 281 gene segment (27) (28). All mouse experiments were approved and conducted under IACUC guidelines.
Mice at least seven weeks of age were sensitized epicutaneously on day 0 with 70 μl of 4% 4-ethoxymethylene-2-phenyl-2-oxazolin-5-one (oxazolone, Sigma, St. Louis, Mo.) in acetone/olive oil (4/1) and challenged five days later on the right ear with 20 μl of 0.5% oxazolone or carrier only on the left ear. The hapten-specific increase in ear thickness at 24 hours was determined with a micrometer.
Mice received a series of 5 intraperitoneal injections of either 2 μg of αManCer (2 μg i.p. diluted in a solution of phosphate buffered saline and 0.5% Tween-20 every other day, starting 3 days prior to skin sensitization and continuing through to re-challenge.
Significant differences between groups were evaluated with a Mann-Whitney test, or where appropriate, a two tailed Student's t test. Mean differences were considered significant when p<0.05.

| Compound | effect on CSH/CHS response to oxazolone, systemic administration (result in words) | inhibition of oxazolone-induced CSH in MHC-unrelated mouse strains (topical 100 mg/ml, SWR, C57B1/10, DBA, BALB/c mice, FIG. 5, result in words) | Half-maximal inhibition of CSH (topical concentration) (topical, applied with 4% oxazolone at sensitization, wild type C57B1/6 mice, FIG. 4A) [mg/mL] | inhibition of contact hypersensitivity, inhibitor present at both phases (topical, during both priming and recall, FIG. 4B, result in words) | inhibition of contact hypersensitivity, inhibitor present in one phase only (topical, only during priming or only during recall, FIG. 4B, result in words) | inhibition of oxazolone-induced contact hypersensitivity, topical at sensitization (topical, with oxazolone on day 0 (100 mg/ml, or increasing doses 0-100 mg/ml), FIG. 3, 4A, result in words) | inhibition of CSH by control substances (specificity) (specificity controls for DPPE-PEG, FIG. 2 and data not shown, result in words) |
| --- | --- | --- | --- | --- | --- | --- | --- |
| 1,2-Dipalmitoyl-sn-Glycero-3-Phosphoethanolamine-N-[Poly(ethylene glycol) 2000] [DPPE-PEG] | inhibited CHS as effectively as α-ManCer | effective inhibitor in all strains tested | 25 | maximally inhibited | also inhibited, but to a lesser extent | inhibits oxazolone-induced contact hypersensitivity; also recorded: inhibit oxazolone-induced hypersensitivity in a dose-dependent manner | – |
| CCCCCCCCCCCCCCCCCCCCCCCCCC(=O)N[C@@H](COC1O[C@H](CO)[C@H](O)[C@H](O)[C@H]1O)[C@H](O)[C@H](O)CCCCCCCCCCCCCC (stereo partly drawn) [α-GalCer, (2S,3S,4R)-1-O-(-D-galactopyranosyl)-2-(N-hexacosanoylamino)-1,3,4-octadecanetriol, reference compound] | did not alter the CSH response | – | – | – | – | – | – |
| CCCCCCCCCCCCCCCC(=O)O [palmitic acid, reference compound] | – | – | – | – | – | – | neither palmitic acid, nor PEG alone were effective inhibitors of CSH |
